“And” between values parts separate entries of the source, which are not always exact repeats. Equal values may be shown once. Toxic doses and inconclusive results are not listed.

The test has as its system P388 leukemia ip, CD2F1 mice, survival T/C. In words: NCI In Vivo Anticancer Drug Screen. Data for tumor model P388 Leukemia (intraperitoneal) in CD2F1 (CDF1) mice. The following applies: endpoint: median survival time, higher = longer survival. Put shortly:
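Mice carrying the transplanted tumor received test compound or vehicle. Survival was recorded in each group, and the value is the treated-group measurement divided by that of the vehicle-treated control group.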

The mark [1] stands for this setting: dose: 50.0 mg/kg/injection, schedule: Q01DX005 (ip), vehicle: Klucel (hydroxypropylcellulose) (HPC).
Setting [2] is: dose: 100.0 mg/kg/injection, schedule: Q01DX005 (ip), vehicle: Klucel (hydroxypropylcellulose) (HPC).
Where [3] appears, read: dose: 50.0 mg/kg/injection, schedule: Q01DX009 (ip), vehicle: Klucel (hydroxypropylcellulose) (HPC).
Where [4] appears, read: dose: 100.0 mg/kg/injection, schedule: Q01DX009 (ip), vehicle: Klucel (hydroxypropylcellulose) (HPC).
Where [5] appears, read: dose: 200.0 mg/kg/injection, schedule: Q01DX009 (ip), vehicle: Klucel (hydroxypropylcellulose) (HPC).
The mark [6] stands for this setting: dose: 6.25 mg/kg/injection, schedule: Q01DX009 (ip), vehicle: saline.
Setting [7] is: dose: 12.5 mg/kg/injection, schedule: Q01DX009 (ip), vehicle: saline with Tween-80.
The mark [8] stands for this setting: dose: 12.5 mg/kg/injection, schedule: Q01DX009 (ip), vehicle: saline.
Where [9] appears, read: dose: 25.0 mg/kg/injection, schedule: Q01DX009 (ip), vehicle: saline with Tween-80.
[10] abbreviates: dose: 25.0 mg/kg/injection, schedule: Q01DX009 (ip), vehicle: saline.
Setting [11] is: dose: 6.25 mg/kg/injection, schedule: Q01DX009 (ip), vehicle: saline with Tween-80.
Setting [12] is: dose: 50.0 mg/kg/injection, schedule: Q01DX009 (ip), vehicle: saline with Tween-80.
[13] abbreviates: dose: 100.0 mg/kg/injection, schedule: Q01DX009 (ip), vehicle: saline with Tween-80.
[14] abbreviates: dose: 50.0 mg/kg/injection, schedule: Q01DX009 (ip), vehicle: saline.
Where [15] appears, read: dose: 100.0 mg/kg/injection, schedule: Q01DX009 (ip), vehicle: saline.
Setting [16] is: dose: 200.0 mg/kg/injection, schedule: Q01DX009 (ip), vehicle: saline.

Turning to `CCn1c(-c2ccc(OC(C)=O)cc2)c(C)c2cc(OC(C)=O)ccc21`, the T/C is 100 % of control (dose: 25.0 mg/kg/injection, schedule: Q01DX005 (ip), vehicle: Klucel (hydroxypropylcellulose) (HPC)); 101 % of control and 102 % of control under setting [1]; 95 % of control and 97 % of control under setting [2]; 90 % of control and 96 % of control (dose: 200.0 mg/kg/injection, schedule: Q01DX005 (ip), vehicle: Klucel (hydroxypropylcellulose) (HPC)); 100 % of control (dose: 400.0 mg/kg/injection, schedule: Q01DX005 (ip), vehicle: Klucel (hydroxypropylcellulose) (HPC)).
In the case of `CCCCCCCCCC(=O)Nc1ncc([N+](=O)[O-])s1`, the T/C is, setting by setting: under setting [3], 94 % of control; under setting [4], 91 % of control; under setting [5], 94 % of control.
Take `C[C@H]1C[C@H](c2ccccc2)[C@@H](c2ccccc2)C(=O)O1`: the T/C by setting is: (dose: 100.0 mg/kg/injection, schedule: Q04DX003 (ip), vehicle: Klucel (hydroxypropylcellulose) (HPC)) 93 % of control; (dose: 200.0 mg/kg/injection, schedule: Q04DX003 (ip), vehicle: Klucel (hydroxypropylcellulose) (HPC)) 92 % of control; (dose: 400.0 mg/kg/injection, schedule: Q04DX003 (ip), vehicle: Klucel (hydroxypropylcellulose) (HPC)) 92 % of control.
With `OC(c1cc(-c2ccc(C(F)(F)F)cc2)nc(C(F)(F)F)c1)C1CCCCN1` (configuration not stated), the T/C runs as follows: under setting [6], 101 % of control; under setting [7], 95 % of control; under setting [8], 103 % of control; under setting [9], 100 % of control; under setting [10], 107 % of control.
Turning to `COC1(OC)CC=COC1(OC)OC`, the T/C by setting is: (dose: 60.0 mg/kg/injection, schedule: Q01DX005 (ip), vehicle: saline) 103 % of control; (dose: 120.0 mg/kg/injection, schedule: Q01DX005 (ip), vehicle: saline) 105 % of control; (dose: 240.0 mg/kg/injection, schedule: Q01DX005 (ip), vehicle: saline) 114 % of control.
Take `COc1cccc2c1C(=O)c1c(O)c3c(c(O)c1C2=O)C[C@@](O)(C(C)=O)C[C@@H]3OC1CC(N)C(OC2CC(O)C(O)C(C)O2)C(C)O1` (some centres not stated): the T/C (dose: 2.25 mg/kg/injection, schedule: Q04DX003 (ip), vehicle: distilled water + Tween-80) is 113 % of control; the T/C (dose: 4.5 mg/kg/injection, schedule: Q04DX003 (ip), vehicle: distilled water + Tween-80) is 113 % of control; the T/C (dose: 6.25 mg/kg/injection, schedule: Q04DX003 (ip), vehicle: distilled water + Tween-80) was 112 % of control; the T/C (dose: 9.0 mg/kg/injection, schedule: Q04DX003 (ip), vehicle: distilled water + Tween-80) is 123 % of control; the T/C (dose: 12.5 mg/kg/injection, schedule: Q04DX003 (ip), vehicle: distilled water + Tween-80) is 112 % of control; the T/C (dose: 25.0 mg/kg/injection, schedule: Q04DX003 (ip), vehicle: distilled water + Tween-80) is 119 % of control. The T/C reads like this: (dose: 36.0 mg/kg/injection, schedule: Q04DX003 (ip), vehicle: distilled water + Tween-80) 123 % of control; (dose: 100.0 mg/kg/injection, schedule: Q04DX003 (ip), vehicle: distilled water + Tween-80) 118 % of control.
For the molecule `O=S(=O)(C#Cc1ccccc1)C(F)(F)C(F)(F)C(F)(F)C(F)(F)F`, the T/C was 116 % of control (dose: 100.0 mg/kg/injection, schedule: Q01DX001 (ip), vehicle: saline); 115 % of control (dose: 200.0 mg/kg/injection, schedule: Q01DX001 (ip), vehicle: saline); 102 % of control (dose: 400.0 mg/kg/injection, schedule: Q01DX001 (ip), vehicle: saline).
`CCCC(NC(=O)C(C)Br)C(=O)O` (configuration not stated): the T/C by setting is: (dose: 100.0 mg/kg/injection, schedule: Q04DX003 (ip), vehicle: saline with Tween-80) 95 % of control; (dose: 200.0 mg/kg/injection, schedule: Q04DX003 (ip), vehicle: saline with Tween-80) 100 % of control; (dose: 400.0 mg/kg/injection, schedule: Q04DX003 (ip), vehicle: saline with Tween-80) 100 % of control.
`O=C(C[n+]1ccccc1)N/N=C/c1ccc([N+](=O)[O-])s1`: the T/C is, setting by setting: under setting [11], 100 % of control; under setting [6], 104 % of control; under setting [7], 96 % of control; under setting [8], 100 % of control; under setting [9], 116 % of control; under setting [10], 100 % of control.
Regarding `O=c1[nH]cnc2nn(C3OC(CO)C(O)C3O)cc12` (configuration not stated), the T/C is 104 % of control and 117 % of control (dose: 0.39 mg/kg/injection, schedule: Q01DX009 (ip), vehicle: saline with Tween-80); 104 % of control and 116 % of control (dose: 0.78 mg/kg/injection, schedule: Q01DX009 (ip), vehicle: saline with Tween-80); 107 % of control (dose: 1.56 mg/kg/injection, schedule: Q01DX009 (ip), vehicle: saline with Tween-80); 93 % of control (dose: 3.12 mg/kg/injection, schedule: Q01DX009 (ip), vehicle: saline with Tween-80); 93 % of control under setting [11]; 101 % of control under setting [7]. For the same molecule, the T/C reads like this: under setting [9], 96 % of control; under setting [12], 104 % of control.
For `COc1cc2c(c(OC)c1OC)-c1ccc(OC)c(=O)cc1[C@@H](N(C)C(=O)C(F)(F)F)CC2`, the T/C (dose: 1.25 mg/kg/injection, schedule: Q01DX009 (ip), vehicle: Klucel (hydroxypropylcellulose) (HPC)) is 154 % of control and 163 % of control.
As to `C=CC1CN2CCC1CC2C(O)c1ccnc2ccc(OC)cc12` (configuration not stated) (tested in a mixture with another compound), the T/C reads like this: under setting [12], 109 % of control; under setting [13], 109 % of control.
As to `CC(=O)C(C(C)=O)[N+](=O)[O-].CC(=O)C(C(C)=O)[N+](=O)[O-].[Cu]`, the T/C (dose: 6.25 mg/kg/injection, schedule: Q01DX005 (ip), vehicle: saline with Tween-80) was 100 % of control and the T/C (dose: 12.5 mg/kg/injection, schedule: Q01DX005 (ip), vehicle: saline with Tween-80) is 105 % of control.
Regarding `C=CCc1ccc(O)cc1`, the T/C was 93 % of control (dose: 25.0 mg/kg/injection, schedule: Q01DX009 (ip), vehicle: Klucel (hydroxypropylcellulose) (HPC)); 99 % of control under setting [3]; 107 % of control under setting [4]; 99 % of control under setting [5].
Turning to `FC(F)(F)c1cc(NC(=S)SC2CCCCC2)ccc1Cl`, the T/C under setting [10] is 103 % of control; the T/C under setting [14] is 100 % of control and 110 % of control; the T/C under setting [15] was 107 % of control and 118 % of control; the T/C under setting [16] is 121 % of control.
Consider `N#CCOc1ccccc1`, for which the T/C is 101 % of control (dose: 3.12 mg/kg/injection, schedule: Q01DX009 (ip), vehicle: other); 102 % of control (dose: 6.25 mg/kg/injection, schedule: Q01DX009 (ip), vehicle: other); 99 % of control (dose: 12.5 mg/kg/injection, schedule: Q01DX009 (ip), vehicle: other); 106 % of control (dose: 25.0 mg/kg/injection, schedule: Q01DX009 (ip), vehicle: other).
With `CC(C)OP(=S)(OC(C)C)SC(C)C`, the T/C under setting [14] is 104 % of control, the T/C under setting [15] was 119 % of control and the T/C under setting [16] is 116 % of control.
`O=C(N/N=C\C12CC3CC(CC(C3)C1)C2)c1ccncc1`: the T/C by setting is: under setting [12], 96 % of control; under setting [13], 90 % of control.
For `C1CNC2NCCNC2N1` (configuration not stated), the T/C under setting [10] is 118 % of control.
Consider `CCOC1CSc2ccccc2C(c2ccccc2)=N1` (configuration not stated), for which the T/C is 107 % of control (dose: 50.0 mg/kg/injection, schedule: Q01DX005 (ip), vehicle: Klucel + Tween-80); 93 % of control (dose: 100.0 mg/kg/injection, schedule: Q01DX005 (ip), vehicle: Klucel + Tween-80); 89 % of control (dose: 200.0 mg/kg/injection, schedule: Q01DX005 (ip), vehicle: Klucel + Tween-80).
Regarding `CC(=O)OCc1ncccc1OC(C)=O`, the T/C is, setting by setting: under setting [9], 104 % of control; under setting [12], 111 % of control; under setting [13], 104 % of control; (dose: 200.0 mg/kg/injection, schedule: Q01DX009 (ip), vehicle: saline with Tween-80) 109 % of control.
For `CC(=O)/C(C(=N)c1nc(C)c(C(C)=O)c(C(N)=O)n1)=C(\C)O`, the T/C under setting [1] is 103 % of control and the T/C under setting [2] is 100 % of control.
`Cc1ccc(S(=O)(=O)C(Sc2ccccc2)=S=NC(C)(C)C)cc1`: the T/C was 104 % of control under setting [3], 98 % of control under setting [4] and 109 % of control under setting [5].

The record behind these values is PubChem BioAssay AID330 (DTP/NCI, 2004).
